This assay in a line: Antiinflammatory activity in human neutrophils assessed as inhibition of fMLP-indcued superoxide production after 5 mins. The assay is classed as functional, cell-based. As to conditions: Neutrophil.

As to `COc1c(O)cc2c(oc3cccc(OC)c32)c1OC`, the IC50 (commonly the concentration at which inhibition is half-maximal) was 27.4 µM. To `CC(C)Cc1ccc(C(C)C(=O)O)cc1` (stereo not drawn) [IBUPROFEN] belongs 27.5 µM; to `COc1c(O)cc2c(oc3c(OC)ccc(OC)c32)c1OC`, 7.61 µM. The value for `COc1c(O)cc2c(oc3c(OC)cccc32)c1OC` was 27.4 µM. Consider `COc1c2c(c3c(oc4c(OC)cccc43)c1OC)OCO2`, for which the IC50 was over 100 µM. As to `COc1cc(O)cc(-c2ccccc2)c1`, the IC50 was found to be 34.1 µM.

As to `COc1cc(O)cc(-c2ccccc2OC)c1`, the IC50 was 8.36 µM. The value for `COc1cc(O)cc(-c2ccccc2O)c1` was 2.04 µM.

Source of the values: ChEMBL document CHEMBL1268851, “Anti-inflammatory Biphenyls and Dibenzofurans from Rhaphiolepis indica” (J Nat Prod, 2010).
